Melting point data for 36 molecules are collected here from a melting point compilation (Tetko et al.; mined from patent text by program, amines drawn as free bases though some values may be those of a salt).

Usually melting point stands for the temperature of the solid-liquid transition. `CC(C)c1ccc2c(c1)C(=O)c1ccccc1C2=O` gave a melting point of 53 to 54 °C. Molecule `O=C(Nc1nc(-c2ccco2)c(-c2ccncc2)s1)c1ccnc(CN2CCC(O)CC2)c1` showed a melting point of 203 to 208 °C. In turn, `FC(F)(F)Sc1ccc(-c2ccc(Cl)cc2)[nH]1` displayed a melting point of 34 to 39 °C. With `O=C(Cc1ccc(OCc2cccs2)cc1)NC1(C(=O)O)Cc2ccc(-c3ccc(Cl)cc3)cc2C1` (stereo unspecified) the figure was 201 °C. Molecule `COc1ccc2c(c1)C13CCN(C)C(C2)C1(O)CCOC3` (single isomer, unassigned; (+)) displayed a melting point of 108 to 110 °C.

As for `CC(=O)N(C)c1ccnc2c(NC(=O)c3c(Cl)cccc3Cl)cccc12`, the melting point fell in the range of 227 to 230 °C. With `O=C(O)CCc1oc(Oc2ccccc2)nc1-c1ccc(Cl)cc1` the figure was 136 to 137 °C; with `Cc1nc(C2CCC(NC(=O)OCC3c4ccccc4-c4ccccc43)CC2)cs1` (stereo unspecified), 140 to 141 °C; with `CCN1CCC2(CC1)OC(c1ccccc1)c1ccccc12` (stereo unspecified), 113 to 115 °C. `CCCCCCN(CCCC(=O)Nc1c(SC)nc(C)nc1N(CC)CC)c1ccc(Br)cc1` came in with a melting point of 89.8 to 93 °C. `Cc1nc2cccc(Cl)c2c(=O)o1`: the melting point stood at 149 °C. With `COC(=O)Cc1ccc2occ(-c3ccc(Br)cc3)c2c1` the figure was 84 to 86 °C; with `COc1ccc2c(n1)CCC(=NO)C2`, 124 to 126 °C; with `CC(=O)NC(C)(C)Cc1ccc(N(C)C)cc1`, 156 to 157 °C. With `O=C1N(Cc2ccc(C(F)(F)F)o2)c2cccc(-c3ccoc3)c2C12COc1cc3c(cc12)CCO3` (stereo unspecified) the figure was 167 to 169 °C. The value for `Cc1sc(N)c(C(=O)c2cccc3ccccc23)c1C` was 195 to 197 °C; that for `O=C(CCCl)Nc1ccc2c(c1NC(=O)CCCl)C(=O)c1ccccc1C2=O` was 179 to 180 °C; that for `ClCc1cccc(CCl)n1` was 74.5 to 75.5 °C. `COC1=Cc2c(c(=O)[nH]c3ccc(OC)cc23)[C@@H](C)C1` registered a melting point of 153 to 157 °C. With `O=CN(O)[C@@H](CCCO)CS(=O)(=O)c1ccc(Oc2ccc(OC(F)(F)F)cc2)cc1` the figure was 85 to 86 °C; with `O=C(CC(O)(Cn1cncn1)c1ccc(Cl)cc1Cl)N1CC1` (stereo unspecified), 151 to 153 °C; with `O=C(O)c1ccc(O)c(C(O)C(Cl)Cl)c1` (stereo unspecified), 214 to 215 °C. With `CC(=NOCCO)c1ccc(-c2ccc3c(c2)OCO3)cc1` the figure was 132 to 134 °C.

`OC(CN1CC=C(c2ccccc2)CC1)c1ccc(Cc2ccc(Cl)cc2)cc1` (stereo unspecified) came in with a melting point of 135 to 137 °C.

Molecule `CSc1cc2c(N3CCc4ccc(Cl)cc43)ncnc2cc1Cl` showed a melting point of 167 to 168 °C. With `CCCC12CCC(c3ccc(C#N)c(F)c3)(CC1)CC2` the figure was 63 °C; with `CC1(N)CN(c2c(F)cc3c(=O)c4c(=O)[nH]sc4n(C4CC4)c3c2F)C1`, 294 to 300 °C. With `NC1([C@@H]2CCN(c3ccc4c(=O)c(C(=O)O)cn([C@@H]5C[C@@H]5F)c4c3)C2)CC1` the figure was 251 to 253 °C; with `Cc1cc(N)cc(C)c1S(=O)(=O)C[N+](=O)[O-]`, 132 to 133 °C.

For the molecule `CCCC(=O)NC1C=CC(CO)C1` (stereo unspecified), the melting point was 71 to 72 °C. The value for `COc1ccc(C=O)c(Br)c1O` was 80 to 81.5 °C; that for `NS(=O)(=O)c1ccccc1-c1ccccn1` was 186 to 190 °C; that for `CC(=NC(C#N)=C(N)C#N)c1cccs1` was 177 to 179 °C.

Take `O=C(c1ccccc1)c1c[nH]c2ncnc(Nc3cccc(CO)c3)c12`: the melting point fell in the range of 273 to 275 °C.

In turn, `CCCNC(=O)C(C)Cc1ccc2ccn(Cc3ccc(C(=O)NS(=O)(=O)c4ccccc4C)cc3OC)c2c1` (stereo unspecified) yielded a melting point of 192 to 194 °C. The value for `CCCc1nn(-c2ccc(C(F)(F)F)cn2)cc1CCCOc1cc(CC(=O)O)ccc1OCC` was 124 to 125 °C.
